In patent US10266539B2, “Polymorph of Syk inhibitors” (Gilead Connecticut, Inc., priority 2013, dated 2019):

Legend:
[1] = Moisture sorption isotherms (Example 6B, Hiden IGASorp / SMS DVS Intrinsic); assay type: physicochemical; conditions: for Water absorbed up to 90% RH: 25 °C
Experimental: Sorption isotherms were obtained using a Hiden IGASorp moisture sorption analyser, controlled by CFRSorp software. The sample temperature was maintained at 25° C. by a Huber re-circulating water bath. The humidity was controlled by mixing streams of dry and wet nitrogen, with a total flow rate of 250 ml/min. The relative humidity (RH) was measured by a calibrated Vaisala RH probe (dynamic range of 0-95% RH), located near the sample. The weight change, (mass relaxation) of the sample as a function of % RH was constantly monitored by the microbalance (accuracy±0.001 mg).
10-20 mg of sample was placed in a tared mesh stainless steel basket under ambient conditions. The sample was loaded and unloaded at 40% RH and 25° C. (typical room conditions).
A moisture sorption isotherm was performed as outlined in Table 1 below (2 scans giving 1 complete cycle). The standard isotherm was performed at 25° C. at 10% RH intervals over a 0-90% RH range.
The software uses a least squares minimization procedure together with a model of the mass relaxation, to predict an asymptotic value. The measured mass relaxation value must be within 5% of that predicted by the software, before the next % RH value is selected. The minimum equilibration time was set to 1 hour and the maximum to 4 hours. […] The sample was recovered after completion of the isotherm and re-analyzed by XRPD.
In other cases, sorption isotherms were also obtained using a SMS DVS Intrinsic moisture sorption analyser, controlled by DVS Intrinsic Control software v1.0.1.2 (or v 1.0.1.3). […] The humidity was controlled by mixing streams of dry and wet nitrogen, with a total flow rate of 200 ml/min The relative humidity was measured by a calibrated Rotronic probe (dynamic range of 1.0-100% RH), located near the sample. The weight change, (mass relaxation) of the sample as a function of % RH was constantly monitored by the microbalance (accuracy±0.005 mg).
5-20 mg of sample was placed in a tared mesh stainless steel basket under ambient conditions. […] The sample was recovered after completion of the isotherm and re-analyzed by XRPD.

[2] = PK study in pentagastrin- or famotidine-pretreated dogs; conditions: famotidine-pretreated dogs, similar tablet formulation
Experimental: Pentagastrin pretreatment (6 μg/kg intramuscular injection 30 minutes prior to test formulation dosing) in fasted dogs was used to simulate fasting gastric pH in humans. Famotidine pretreatment (20 mg orally 1 hour prior to test formulation dosing) in fasted dogs was used to simulate human gastric pH when acid suppressant was co-dosed with test formulation. The tablets of the mono-MSA salt or bis-MSA salt of a compound of Formula I (conventional tablet and spray dried formulation) were orally administered followed by a 30 mL water flush.

[3] = Hygroscopicity by dynamic vapor sorption (Example 6A, Q5000SA); assay type: physicochemical; conditions: after full sorption/desorption cycle
Experimental: Hygroscopicity of polymorph Form 3 and polymorph Form 7 at 25° C. was determined by dynamic vapor sorption (DVS) using an automated vapor sorption balance (Q5000SA; TA instruments, New Castle, Del.). Hygroscopicity was studied as a function of relative humidity (RH) over the range of 0 to 90%. Approximately 10 mg of solid sample was placed directly onto the 13 mm quartz DVS sample cup and equilibrated at 0% relative humidity (RH) until a constant weight was achieved. After equilibration, the RH was increased in increments of 10% to reach 90%, and the water sorption was monitored. For desorption, the relative humidity was deceased in a similar manner to accomplish a full sorption/desorption cycle.
For all experiments, the instrument was operated in dm/dt mode (mass variation over time) to determine when equilibrium was reached. A fixed dm/dt value of 0.0010% min^−1 was selected for all RH segments. A maximum stage of 360 minutes and a minimum stage of 60 minutes were selected for these experiments.

Solubility in water = assay type: physicochemical; conditions: final pH of the water solubility sample

Water absorbed up to 90% RH ([1]; listed as Polymorph Form 7) | Increase of AUC0-24 compared to the mono-MSA salt formulation [2] | Water absorbed up to 90% RH ([1]; listed as Form 3) | Form by XRPD after DVS analysis ([1]; after isotherm) | Form by XRPD at the end of the DVS experiment [3] | final pH (Solubility in water) | Compound
~21 wt. % |  |  |  |  |  | c1cn2cc(-c3ccc4cn[nH]c4c3)nc(Nc3ccc(N4CCOCC4)cc3)c2n1 [polymorph Form 7]
 | more than 10 fold | ~20 wt. % | converted to Form 7 | converted to Form 7 | (final pH <1.5) | c1cn2cc(-c3ccc4cn[nH]c4c3)nc(Nc3ccc(N4CCOCC4)cc3)c2n1 [polymorph Form 3]
